From the supplement of paper PMC11061612

Columns and labels:
Assay in all cases: combination Emax (second highest fraction inhibited in the dose matrix, 72 h); higher = more inhibition; extreme values may be limits of the assay
[1] = tested on: DB (B-Cell Non-Hodgkin's Lymphoma)
Summary of the method: (§1)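 Bliss excess equals the observed combination effect minus the expected value EA + EB − EA·EB, where EA and EB are the effects of each agent alone. Combination Emax is the second-highest inhibition within the matrix. Inhibition was scaled from CellTiter-Glo 2.0 luminescence, with 0 set by vehicle wells and 1 by blank wells, after 72 hours of two-drug dosing of cells plated in 1536-well plates.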

[2] = tested on: NCI-H2369 (Mesothelioma)
Summary of the method: as §1

[3] = tested on: EM-2 (Chronic Myelogenous Leukemia)
Summary of the method: as §1

[4] = tested on: G-292-Clone-A141B1 (Osteosarcoma)
Summary of the method: as §1

[5] = tested on: CFPAC-1 (Pancreatic Carcinoma)
Summary of the method: as §1

[6] = tested on: DSH1 (Bladder Carcinoma)
Summary of the method: as §1

[7] = tested on: RH-1 (Ewing's Sarcoma)
Summary of the method: as §1

[8] = tested on: NALM-6 (B-Lymphoblastic Leukemia)
Summary of the method: as §1

[9] = tested on: HCC2157 (Breast Carcinoma)
Summary of the method: as §1

[10] = tested on: KARPAS-1106P (B-Cell Non-Hodgkin's Lymphoma)
Summary of the method: as §1

[11] = tested on: KATOIII (Gastric Carcinoma)
Summary of the method: as §1

[12] = tested on: KARPAS-620 (Plasma Cell Myeloma)
Summary of the method: as §1

[13] = tested on: SW756 (Cervical Carcinoma)
Summary of the method: as §1

[14] = tested on: SK-N-FI (Neuroblastoma)
Summary of the method: as §1

[15] = tested on: SW1783 (Low Grade Glioma)
Summary of the method: as §1

[16] = tested on: LU-99A (Non-Small Cell Lung Carcinoma)
Summary of the method: as §1

[17] = tested on: MFH-ino (Other Solid Carcinomas)
Summary of the method: as §1

[18] = tested on: JiyoyeP-2003 (Burkitt's Lymphoma)
Summary of the method: as §1

[19] = tested on: C3A (Hepatocellular Carcinoma)
Summary of the method: as §1

[20] = tested on: SUIT-2 (Pancreatic Carcinoma)
Summary of the method: as §1

Compound	combination Emax [1]	combination Emax [2]	combination Emax [3]	combination Emax [4]	combination Emax [5]	combination Emax [6]	combination Emax [7]	combination Emax [8]	combination Emax [9]	combination Emax [10]	combination Emax [11]	combination Emax [12]	combination Emax [13]	combination Emax [14]	combination Emax [15]	combination Emax [16]	combination Emax [17]	combination Emax [18]	combination Emax [19]	combination Emax [20]
COc1cccc(OCCCN)c1-c1cc(Nc2cnc(C#N)cn2)n[nH]1 [Prexasertib] + O=C(c1cc(Cc2n[nH]c(=O)c3ccccc23)ccc1F)N1CCN(C(=O)C2CC2)CC1 [Olaparib] (first compound max 1 µM, 7x7, partner max 10 µM)	0.687	0.283	1	0.3	0.671	0.688	1	0.96	0.967	0.897	0.431	0.802	0.456	0.889	0.508	0.765	0.45	0.986	0.53	0.682
CN(CCO)CC[C@H](CSc1ccccc1)Nc1ccc(S(=O)(=O)NC(=O)c2ccc(N3CCC([C@@H](O)c4ccccc4-c4ccc(Cl)cc4)CC3)cc2)cc1S(=O)(=O)C(F)(F)F [AZD4320] + C[C@@H]1COCCN1C2=NC(=NC(=C2)C3(CC3)[S@](=N)(=O)C)C4=C5C=CNC5=NC=C4 [AZD6738] (first compound max 1 µM, 7x7, partner max 10 µM)	0.959	0.324	0.988	0.754	0.724	0.94	0.963	1	0.979	0.849	0.474	1	0.381	0.765	0.669	0.838	0.51	0.972	0.52	0.522
CN(CCO)CC[C@H](CSc1ccccc1)Nc1ccc(S(=O)(=O)NC(=O)c2ccc(N3CCC([C@@H](O)c4ccccc4-c4ccc(Cl)cc4)CC3)cc2)cc1S(=O)(=O)C(F)(F)F [AZD4320] + CN(C)CCCOc1ccc(-c2ccc3ncc4c(c3c2)n(C2CCOCC2)c(=O)n4C)cn1 [AZD0156] (first compound max 1 µM, 7x7, partner max 1 µM)	0.933	0.0933	0.968	0.647	0.115	0.369	0.359	0.973	0.936	0.146	0.0663	1	0.133	0.17	0.52	0.292	0.102	0.645	0.248	0.0928
COc1cccc(OCCCN)c1-c1cc(Nc2cnc(C#N)cn2)n[nH]1 [Prexasertib] + Cc1cc2ncnn2cc1Nc1ncc2c(n1)n(C1CCOCC1)c(=O)n2C [AZD7648] (first compound max 1 µM, 7x7, partner max 10 µM)	0.766	0.253	0.99	0.295	0.692	0.768	1	0.943	0.958	0.909	0.526	0.817	0.489	0.915	0.473	0.804	0.464	0.984	0.611	0.739
COc1nnc2ccc(N3CCC(c4ccc(OCCN5CCN(C)C(=O)[C@H]5C)cc4)CC3)nn12 [AZD5153] + CCN(CCO)CCCOc1ccc2c(Nc3cc(CC(=O)Nc4cccc(F)c4)[nH]n3)ncnc2c1 [AZD2811] (first compound max 1 µM, 7x7, partner max 1 µM)	0.722	0.344	0.986	0.366	0.394	0.651	0.995	0.938	1	0.741	0.31	0.75	0.386	0.657	0.328	0.505	0.553	0.846	0.524	0.436
